Results on eight molecules are retold here after US20220370464A1, “COMPOSITIONS AND METHODS OF TREATING OR PREVENTING OCULAR INFECTIONS WITH FILOCICLOVIR” (Microbiotix, Inc., priority 2019, published 2022).

By CC50 is commonly meant the concentration at which the toxic effect on the cells reaches its halfway point. High values mean better tolerance by the cells, low ones harm at low concentration. The term EC50 denotes the concentration at which the effect is half-maximal. Read a high EC50 as a less potent agent.

Read-outs that look alike come from different tables or passages of the source.

Data set [1] in a line: Cytotoxicity, CellTiter-Glo cell viability in HFF cells. As to conditions: human, human foreskin fibroblast (HFF) cells. How it is done: (§1) Human foreskin tissue was obtained from the University of Alabama at Birmingham tissue procurement facility with approval from the Institutional Review Board. The tissue was stored at 4° C. in cell culture medium consisting of minimum essential media (MEM) with Earle's salts supplemented with 10% fetal bovine serum (FBS; HyClone, Inc., Logan, Utah) and standard concentration of L-glutamine, amphotericin B (Fungizone), and vancomycin. The tissue was then placed in a phosphate-buffered saline solution, minced, and rinsed to remove the red blood cells. Tissue fragments were then resuspended in a trypsin-EDTA solution and incubated at 37° C. to disperse the cells, which were then collected by centrifugation. Cell pellets were then resuspended in 4 ml culture medium, placed in a 25-cm^2 tissue culture flask, and incubated at 37° C. for 24 h. The culture medium was then replaced with fresh medium and condition of the cells was monitored daily until a confluent cell monolayer was formed. The HFF cells were then expanded through serial passages in standard growth medium of MEM with Earle's salts supplemented with 10% FBS, L-glutamine, penicillin, and gentamicin. Each lot of cells was confirmed to be free of mycoplasma infection and routinely passaged or used for assays at or before passage 10.
(§2) Antiviral and cytotoxicity data were obtained in a series of three to five separate experiments for each virus to provide an accurate estimate of antiviral activity and statistical data. Each assay included positive and negative control compounds as well as infected and uninfected controls to ensure the integrity of the experiment.
(§3) The CPE reduction assays were performed in monolayers of human foreskin fibroblast (HFF) cells (5000/well) in 384-well plates in assay media consisting of MEM with Earle's salts, 2% FBS and standard concentrations of L-glutamine, penicillin and gentamycin. 5000 cells were seeded in 384-well microtiter plates and incubated at 37° C. in a humidified 5% CO2 incubator for 24 hours to allow for formation of confluent monolayers.
(§4) Cell monolayers were infected at a multiplicity of infection (MOI) of approximately 0.005 PFU/cell with virus strains including AdV5. […] Cytopathology was determined by the addition of CellTiter-Glo® reagent (Promega, Madison, Wis.).

In data set [2] the test system is Adenovirus 5 (AdV5). The data set can be described thus: Cytopathic effects (CPE) reduction assay, AdV5 in HFF cells, 384-well. It is filed as cell-based, human adenovirus 5 (AdV5). As to conditions: for EC50: AdV 384 Well CPE, HFF cells, average and SD from five independent experiments. (Damage to the host cells serves as the signal in cytopathic effect assays.)
Experimental: Cell monolayers were infected at a multiplicity of infection (MOI) of approximately 0.005 PFU/cell with virus strains including AdV5. […] Cytopathology was determined by the addition of CellTiter-Glo® reagent (Promega, Madison, Wis.). Concentrations of antiviral test compounds sufficient to reduce CPE by 50% (EC50) were interpolated from the experimental data using standard methods in Microsoft® Excel.
Data set [3] deals with human foreskin fibroblast (HFF) cells. The data set can be described thus: Cytotoxicity, CellTiter-Glo cell viability in HFF cells. How it is done:
as §1, §2, §3, §4

In data set [4] the test system is ocular AdV infections. As to conditions: topical, literature; cited from earlier work.
[5] abbreviates: HFF cells, 384-well, average and SD from five independent experiments.

In data set [1], `Nc1nc2c(ncn2COCCO)c(=O)[nH]1` [ACV, acyclovir] came in with a CC50 of more than 100 µM.

With `OC[C@H]1O[C@@H](n2c(Br)nc3cc(Cl)c(Cl)cc32)[C@H](O)[C@@H]1O` [BDCRB, bromodichlororibobenzimidazole], it took 70 ± 39 µM to reach a half-maximal effect in data set [2] (EC50). The molecule further registered a CC50 in data set [3] (setting [5]) of 91 ± 13 µM.

As to `Cc1cn([C@H]2C[C@H](O)[C@]3(CO)C[C@H]23)c(=O)[nH]c1=O` [N-MCT, N-methanocarbathymidine], the EC50 in data set [2] was 57 ± 47 µM. For the same molecule, the CC50 in data set [3] (setting [5]) was 72 ± 33 µM.

`O=c1[nH]c(=O)n([C@@H]2O[C@H](CO)[C@@H](O)[C@@H]2F)cc1I` [FIAU] returned an EC50 in data set [2] of more than 100 µM. The molecule also displayed a CC50 in data set [3] of more than 100 µM.

Take `Nc1nc(O)c2ncn(COC(CO)CO)c2n1` [GCV, ganciclovir]: the selectivity ratio in data set [2] (human, adenovirus 5, HFF cells, read-out: SI (selective index, CC50/EC50)) is not below 1.5. In addition, in data set [4], the “efficacy in the treatment of AdV conjunctivitis in clinical trials” value was “lacks efficacy”. In data set [1], this molecule registered a CC50 of more than 100 µM.

In the case of `O=c1[nH]c(=O)n([C@@H]2CO[C@H](CO)O2)cc1/C=C/Br` [L-BHDU, L-Bromovinyl-Hydroxymethyl-Dioxolan Uracil], the EC50 in data set [2] is more than 100 µM. In data set [3], this molecule registered a CC50 of more than 100 µM.

For the molecule `Nc1ncnc2c1ncn2CCOCP(=O)(O)O` [PMEA, adefovir], the CC50 in data set [3] (setting [5]) is more than 100 µM.

Consider `O=c1[nH]c(=S)c(I)cn1[C@H]1C[C@H](O)[C@@H](CO)O1` [4-thio-IDU, 4-thioidoxuridine], for which the EC50 in data set [2] (Human mastadenovirus C) was 11 ± 9.4 µM. Also, the CC50 in data set [3] (setting [5]) was 26 ± 24 µM.
